Earlier results in patent US20260183325A1, “SUSTAINED OR IMMEDIATE RELEASE ENERGY, MENTAL FOCUS, AND PHYSICAL RECOVERY NUTRITIONAL SUPPLEMENT BLEND, DIETARY SUPPLEMENT, FUNCTIONAL FOOD AND FUNCTIONAL BEVERAGE” (Matchstick Brands, LLC, priority 2023, published 2026).

Conditions: during working memory processes (Koppelstatter et al. 2008)

Structure (SMILES): Cn1c(=O)c2c(ncn2C)n(C)c1=O [caffeine]
- fMRI signal changes in a network of brain areas associated with executive and attentional functions: increases
